Results published in patent US6737383B1, “Herbicidal oxadiazolidines” (priority 1999, dated 2004).

Tests used:
purple nutsedge = test: Test B pre/postemergence purple nutsedge; format: in vivo, Cyperus rotundus; conditions: for Nutsedge plant response rating: scale of 0 to 10 where 0 is no effect and 10 is complete control
In short: (§1)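 Response is a visual 0-to-10 score relative to untreated plants, where 0 means no effect and 10 means complete control, taken twelve to sixteen days after application. Treatments went onto soil at planting and onto foliage of 1- to 4-leaf plants, using a surfactant-containing non-phytotoxic solvent.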

wheat = test: Test B pre/postemergence wheat; format: in vivo, Triticum aestivum; conditions: for Wheat plant response rating: scale of 0 to 10 where 0 is no effect and 10 is complete control
In short: as §1

corn = test: Test B pre/postemergence corn; format: in vivo, Zea mays; conditions: for Corn plant response rating: scale of 0 to 10 where 0 is no effect and 10 is complete control
In short: as §1

crabgrass = test: Test B pre/postemergence crabgrass; format: in vivo, Digitaria sanguinalis; conditions: for Crabgrass plant response rating: scale of 0 to 10 where 0 is no effect and 10 is complete control
In short: as §1

smallflower flatsedge = test: Test B flood test smallflower flatsedge; format: in vivo, Cyperus difformis
In short: (§2)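 Flood test on plants grown to the 2-leaf stage; treated plants kept in greenhouse twelve to sixteen days, then visually rated against controls on a 0 (no effect) to 10 (complete control) scale.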

cocklebur = test: Test B pre/postemergence cocklebur; format: in vivo, Xanthium strumarium; conditions: for Cocklebur plant response rating: scale of 0 to 10 where 0 is no effect and 10 is complete control
In short: as §1

duck salad = test: Test B flood test duck salad; format: in vivo, Heteranthera limosa
In short: as §2

blackgrass = test: Test B pre/postemergence blackgrass; format: in vivo, Alopecurus myosuroides; conditions: for Blackgrass plant response rating: scale of 0 to 10 where 0 is no effect and 10 is complete control
In short: as §1

rice = test: Test B flood test rice; format: in vivo, Oryza sativa
In short: as §2

velvetleaf = test: Test B pre/postemergence velvetleaf; format: in vivo, Abutilon theophrasti; conditions: for Velvetleaf plant response rating: scale of 0 to 10 where 0 is no effect and 10 is complete control
In short: as §1

morningglory = test: Test B pre/postemergence morningglory; format: in vivo, Ipomoea hederacea; conditions: for Morningglory plant response rating: scale of 0 to 10 where 0 is no effect and 10 is complete control
In short: as §1

bamyardgrass = test: Test B flood test barnyardgrass; format: in vivo, Echinochloa crus-galli
In short: as §2

surinam grass = test: Test B pre/postemergence surinam grass; format: in vivo, Brachiaria decumbens; conditions: for B. signalgrass plant response rating: scale of 0 to 10 where 0 is no effect and 10 is complete control
In short: as §1

bedstraw = test: Test B pre/postemergence bedstraw; format: in vivo, Galium aparine; conditions: Postemergence
In short: as §1

giant foxtail = test: Test B pre/postemergence giant foxtail; format: in vivo, Setaria faberii; conditions: for Giant foxtail plant response rating: scale of 0 to 10 where 0 is no effect and 10 is complete control
In short: as §1

wild oat = test: Test B pre/postemergence wild oat; format: in vivo, Avena fatua; conditions: for Wild oats plant response rating: scale of 0 to 10 where 0 is no effect and 10 is complete control
In short: as §1

[1] = Postemergence, Rate 125 g/ha, scale 0 to 10, 0 is no effect, 10 is complete control
[2] = Postemergence, Rate 250 g/ha, scale 0 to 10, 0 is no effect, 10 is complete control
[3] = Preemergence, Rate 62 g/ha, scale 0 to 10 (0 no effect, 10 complete control)
[4] = Rate 500 g/ha, Postemergence, scale 0 to 10, 0 no effect, 10 complete control
[5] = Postemergence (flood test), Rate 125 g/ha, scale 0 to 10, 0 is no effect, 10 is complete control
[6] = Rate 62 g/ha, Postemergence (flood test species), scale of 0 to 10 where 0 is no effect and 10 is complete control
[7] = Rate 500 g/ha, listed under Postemergence (flood test species), scale 0 to 10, 0 no effect, 10 complete control
[8] = flood test species, listed under Postemergence, Rate 250 g/ha, scale 0 to 10, 0 is no effect, 10 is complete control

CC(C)N(C(=O)n1oc(=O)n(C2(C)CC2)c1=O)c1ccccc1 [Compound 360]
Plant response rating, Nutsedge (purple nutsedge; [1]): 0
Plant response rating, Nutsedge (purple nutsedge; [2]): 2
Plant response rating, Nutsedge (purple nutsedge; [3]): 0
Nutsedge plant response rating (0 to 10 scale) (purple nutsedge; Preemergence, Rate 125 g/ha): 0
Nutsedge plant response rating (purple nutsedge; Preemergence, Rate 250 g/ha): 0
Nutsedge plant response rating (purple nutsedge; Preemergence, Rate 500 g/ha): 7
Nutsedge plant response rating (purple nutsedge; Rate 62 g/ha, Postemergence): 0
Plant response rating, Nutsedge (purple nutsedge; [4]): 4
Plant response rating, Wheat (wheat; [1]): 4
Plant response rating, Wheat (wheat; [2]): 4
Plant response rating, Wheat (wheat; [3]): 3
Wheat plant response rating (0 to 10 scale) (wheat; Preemergence, Rate 125 g/ha): 6
Wheat plant response rating (wheat; Preemergence, Rate 250 g/ha): 7
Wheat plant response rating (wheat; Preemergence, Rate 500 g/ha): 8
Wheat plant response rating (wheat; Rate 62 g/ha, Postemergence): 3
Plant response rating, Wheat (wheat; [4]): 6
Plant response rating, Corn (corn; [1]): 2
Plant response rating, Corn (corn; [2]): 6
Plant response rating, Corn (corn; [3]): 0
Corn plant response rating (0 to 10 scale) (corn; Preemergence, Rate 125 g/ha): 3
Corn plant response rating (corn; Preemergence, Rate 250 g/ha): 4
Corn plant response rating (corn; Preemergence, Rate 500 g/ha): 9
Corn plant response rating (corn; Rate 62 g/ha, Postemergence): 2
Plant response rating, Corn (corn; [4]): 7
Plant response rating, Crabgrass (crabgrass; [1]): 2
Plant response rating, Crabgrass (crabgrass; [2]): 5
Plant response rating, Crabgrass (crabgrass; [3]): 9
Crabgrass plant response rating (0 to 10 scale) (crabgrass; Preemergence, Rate 125 g/ha): 10
Crabgrass plant response rating (crabgrass; Preemergence, Rate 250 g/ha): 10
Crabgrass plant response rating (crabgrass; Preemergence, Rate 500 g/ha): 10
Crabgrass plant response rating (crabgrass; Rate 62 g/ha, Postemergence): 2
Plant response rating, Crabgrass (crabgrass; [4]): 5
Plant response rating, S. Flatsedge (smallflower flatsedge; [5]): 4
S. Flatsedge plant response rating (smallflower flatsedge; [6]): 2
Plant response rating, S. Flatsedge (smallflower flatsedge; [7]): 8
Plant response rating, S. Flatsedge (smallflower flatsedge; [8]): 4
Plant response rating, Cocklebur (cocklebur; [1]): 0
Plant response rating, Cocklebur (cocklebur; [2]): 0
Plant response rating, Cocklebur (cocklebur; [3]): 0
Cocklebur plant response rating (0 to 10 scale) (cocklebur; Preemergence, Rate 125 g/ha): 0
Cocklebur plant response rating (cocklebur; Preemergence, Rate 500 g/ha): 0
Cocklebur plant response rating (cocklebur; Rate 62 g/ha, Postemergence): 0
Plant response rating, Cocklebur (cocklebur; [4]): 0
Plant response rating, Ducksalad (duck salad; [5]): 0
Ducksalad plant response rating (duck salad; [6]): 0
Plant response rating, Ducksalad (duck salad; [7]): 0
Plant response rating, Ducksalad (duck salad; [8]): 0
Plant response rating, Blackgrass (blackgrass; [1]): 5
Plant response rating, Blackgrass (blackgrass; [2]): 6
Plant response rating, Blackgrass (blackgrass; [3]): 9
Blackgrass plant response rating (0 to 10 scale) (blackgrass; Preemergence, Rate 125 g/ha): 9
Blackgrass plant response rating (blackgrass; Preemergence, Rate 250 g/ha): 9
Blackgrass plant response rating (blackgrass; Preemergence, Rate 500 g/ha): 10
Blackgrass plant response rating (blackgrass; Rate 62 g/ha, Postemergence): 5
Plant response rating, Blackgrass (blackgrass; [4]): 7
Plant response rating, Rice (rice; [5]): 0
Rice plant response rating (rice; [6]): 0
Plant response rating, Rice (rice; [7]): 3
Plant response rating, Rice (rice; [8]): 3
Plant response rating, Velvetleaf (velvetleaf; [1]): 0
Plant response rating, Velvetleaf (velvetleaf; [2]): 0
Plant response rating, Velvetleaf (velvetleaf; [3]): 3
Velvetleaf plant response rating (0 to 10 scale) (velvetleaf; Preemergence, Rate 125 g/ha): 6
Velvetleaf plant response rating (velvetleaf; Preemergence, Rate 250 g/ha): 7
Velvetleaf plant response rating (velvetleaf; Preemergence, Rate 500 g/ha): 7
Velvetleaf plant response rating (velvetleaf; Rate 62 g/ha, Postemergence): 0
Plant response rating, Velvetleaf (velvetleaf; [4]): 4
Plant response rating, Morningglory (morningglory; [1]): 4
Plant response rating, Morningglory (morningglory; [2]): 4
Plant response rating, Morningglory (morningglory; [3]): 0
Morningglory plant response rating (0 to 10 scale) (morningglory; Preemergence, Rate 125 g/ha): 5
Morningglory plant response rating (morningglory; Preemergence, Rate 250 g/ha): 7
Morningglory plant response rating (morningglory; Preemergence, Rate 500 g/ha): 10
Morningglory plant response rating (morningglory; Rate 62 g/ha, Postemergence): 4
Plant response rating, Morningglory (morningglory; [4]): 5
Plant response rating, Barnyardgrass (bamyardgrass; [5]): 2
Barnyardgrass plant response rating (bamyardgrass; [6]): 2
Plant response rating, Barnyardgrass (bamyardgrass; [7]): 7
Plant response rating, Barnyardgrass (bamyardgrass; [8]): 6
Plant response rating, B. signalgrass (surinam grass; [1]): 0
Plant response rating, B. signalgrass (surinam grass; [2]): 5
Plant response rating, B. signalgrass (surinam grass; [3]): 5
B. signalgrass plant response rating (0 to 10 scale, 0 is no effect, 10 is complete control) (surinam grass; Preemergence, Rate 125 g/ha): 6
B. signalgrass plant response rating (surinam grass; Preemergence, Rate 250 g/ha): 7
B. signalgrass plant response rating (surinam grass; Preemergence, Rate 500 g/ha): 7
B. signalgrass plant response rating (surinam grass; Rate 62 g/ha, Postemergence): 0
Plant response rating, B. signalgrass (surinam grass; [4]): 7
Plant response rating, Bedstraw (bedstraw; Rate 125 g/ha, scale 0 to 10, 0 is no effect, 10 is complete control): 0
Plant response rating, Bedstraw (bedstraw; Rate 250 g/ha, scale 0 to 10, 0 is no effect, 10 is complete control): 2
Bedstraw plant response rating (bedstraw; Rate 62 g/ha, scale of 0 to 10 where 0 is no effect and 10 is complete control): 0
Plant response rating, Bedstraw (bedstraw; Rate 500 g/ha, scale 0 to 10, 0 no effect, 10 complete control): 4
Plant response rating, Giant foxtail (giant foxtail; [1]): 8
Plant response rating, Giant foxtail (giant foxtail; [2]): 8
Plant response rating, Giant foxtail (giant foxtail; [3]): 10
Giant foxtail plant response rating (0 to 10 scale) (giant foxtail; Preemergence, Rate 125 g/ha): 10
Giant foxtail plant response rating (giant foxtail; Preemergence, Rate 250 g/ha): 10
Giant foxtail plant response rating (giant foxtail; Preemergence, Rate 500 g/ha): 10
Giant foxtail plant response rating (giant foxtail; Rate 62 g/ha, Postemergence): 8
Plant response rating, Giant foxtail (giant foxtail; [4]): 8
Plant response rating, Wild oats (wild oat; [1]): 3
Plant response rating, Wild oats (wild oat; [2]): 3
Plant response rating, Wild oats (wild oat; [3]): 3
Wild oats plant response rating (0 to 10 scale) (wild oat; Preemergence, Rate 125 g/ha): 10
Wild oats plant response rating (wild oat; Preemergence, Rate 250 g/ha): 10
Wild oats plant response rating (wild oat; Preemergence, Rate 500 g/ha): 10
Wild oats plant response rating (wild oat; Rate 62 g/ha, Postemergence): 3
Plant response rating, Wild oats (wild oat; [4]): 5
